These results are taken from patent US20060088502A1, “Drug for reducing side effects in ribavirin interferon combination therapy” (priority 2003, published 2006).

Marks after values point to notes of the source that are not given here.

For the test, the system named is patients with chronic hepatitis C who had developed anemia due to ribavirin/IFN α combination therapy. The format is in vivo, human. Conditions: average of 6 cases; p < 0.05 vs. before EPA administration (10.8 g/dL). How it is done:
After the onset of anemia, each patient received 600 mg of EPA-E (trade name: Epadel, manufactured by Mochida Pharmaceutical Co., Ltd.) three times a day by oral administration every after meal for 2 months. Depending on the disease cases, the time of starting the administration of EPA-E varied within the range from 1 to 4 months after the start of administration of ribavirin/IFN α. In the ribavirin/IFN α combination therapy, ribavirin (trade name: Rebetol, manufactured by Schering-Plough Corporation) was orally administered to each patient of over 60 kg in body weight at a dose of 400 mg every after morning meal and every after evening meal as well, and to each patient of 60 kg or less at a dose of 200 mg every after morning meal and 400 mg every after evening meal. Simultaneously, 6 million IU a day of IFN α-2b (trade name: Intron A, manufactured by Schering-Plough Corporation) was intramuscularly administered everyday for two weeks, followed by intermittent administration of three times a week for 22 weeks.

Consider `CC/C=C\C/C=C\C/C=C\C/C=C\C/C=C\CCCC(=O)OCC` [EPA, eicosapentaenoic acid ethyl ester], for which the “Hemoglobin level, average, after EPA administration for one month” value was 11.4* g/dL and the “Hemoglobin level, average, after EPA administration for two months” value was 11.5* g/dL.
